Measurements from patent US20250376474A1, “RET-LDD PROTEIN DEGRADERS” (Bristol-Myers Squibb Company, priority 2022, published 2025).

Target: T1, CCDC6-RET fusion expressing papillary thyroid carcinoma (TPC-1) cell line (Homo sapiens, UniProt P07949)
T1 construct: RET protein abundance (and therefore degradation) directly corresponds to luminescence intensity; CCDC6 (fusion partner, N-terminal part); endogenous in cells; host or cells: TPC-1 (papillary thyroid carcinoma), parental; the other entry of the earlier key: CCDC6 (Q16204, Coiled-coil domain-containing protein 6)
T1 sequence (P07949 with tags, fused parts or gaps): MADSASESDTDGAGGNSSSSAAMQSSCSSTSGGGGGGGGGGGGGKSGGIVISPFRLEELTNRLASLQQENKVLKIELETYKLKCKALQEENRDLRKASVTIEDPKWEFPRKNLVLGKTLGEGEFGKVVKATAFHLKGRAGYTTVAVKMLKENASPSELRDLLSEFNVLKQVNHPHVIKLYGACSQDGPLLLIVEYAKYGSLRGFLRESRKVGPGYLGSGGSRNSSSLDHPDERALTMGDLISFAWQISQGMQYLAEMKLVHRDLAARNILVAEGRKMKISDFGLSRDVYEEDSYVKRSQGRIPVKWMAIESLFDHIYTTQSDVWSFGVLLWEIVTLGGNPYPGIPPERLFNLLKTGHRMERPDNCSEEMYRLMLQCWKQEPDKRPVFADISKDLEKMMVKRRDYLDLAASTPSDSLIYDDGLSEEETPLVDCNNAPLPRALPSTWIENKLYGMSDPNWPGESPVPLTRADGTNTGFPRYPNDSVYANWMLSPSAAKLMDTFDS
Test: Cellular RET degradation assay (AlphaLISA Surefire Ultra, tRET) in TPC-1/CCDC6-RET cells
Assay type: cell-based
Conditions: TPC1, maximum % degradation (YMax) from 4-parameter logistic fit, parental TPC-1/CCDC6-RET cells, 24 hrs treatment, read-out: Cell Density TPC-1/CCDC6-RET YMax (%)
Description: Cellular RET degradation compound potency was determined using the bead-based luminescent amplification assay—AlphaLISA Surefire Ultra Detection Kit (Perkin-Elmer). The CCDC6-RET fusion expressing papillary thyroid carcinoma (TPC-1) cell line was selected for screening of potential degraders: Parental (TPC-1/CCDC6-RET). Cells were plated in 384 well culture plates (Greiner Bio-One) at 10,000 cells/well in 50ul/well DMEM (Fisher Scientific) with 2% FBS serum (Gibco). After cellular adhesion (4 hrs), cells were treated with compound by dispensing 25nl of serially diluted compound (1:3 dilution: 1 ipoint) directly into the cell culture wells using an Echo-655 acoustic liquid dispenser (Beckman). Low normalization wells were media only and high normalization wells were cells treated with DMSO only. Treated cell plates were placed in an incubator at 37C and 5% CO2 for 24 hrs. At 24 hrs, cell media was removed by a FELIX automated liquid hander (Analytik Jena) and 25ul of cell lysis buffer (provided in AlphaLisa kit) was added to each well. 5ul cell lysate were transferred into a 384-well microplate (Perkin Elmer) before addition of 2.5ul AlphaLISA Acceptor Bead mix. The plates were sealed and kept at room temperature for 1 hr before addition of donor bead mixture. Donor bead addition was performed in the dark and incubated for >1 hr before AlphaLISA luminescence was measured on an Envision plate reader with an Alphascreen aperture at RT (excitation 680 nm, emission 615 nm). RET protein abundance (and therefore degradation) directly corresponds to luminescence intensity.
Intensities were normalized relative to the average values from 16 wells containing media alone (blank-low) and 16 wells containing cells +DMSO (high). % Degradation for each well was determined using the standard equation, where
DC50 (IC50) values for each compound tested are calculated by analyzing plots of % degradation versus compound concentration, and fitting to the standard 4-parameter logistic curve where,
Top and bottom are the % degradation at infinitely large and infinitely small compound concentrations, respectively, while Halfmax is the compound concentration yielding % degradation corresponding tob½ Top-Bottom, and N is the Hill coefficient. DC50 values are calculated according to the relationship,
Compound replicates were performed in independent assays. Maximum degradation (YMax) was defined as the maximal % degradation value from the 4-parameter logistic equation, as previously described.
The half-maximal degradation concentration (DC50) and % degradation response (Ymax) are included in Table 3.

Row | Dmax [%] | Structure (SMILES)
1 | 79.9 | COCc1ccc(NC(=O)c2c(C#CC3CCN(C(=O)CCCCN4CCN(c5ccc6c(c5)CN(C5CCC(=O)NC5=O)C6=O)CC4)CC3)c(C(C)C)n3ncnc(N)c23)cc1 (stereo not shown) [Example 5, 4-amino-6-((1-(5-(4-(2-(2,6-dioxopiperidin-3-yl)-1-oxoisoindolin-5-yl)piperazin-1-yl)pentanoyl)piperidin-4-yl)ethynyl)-7-isopropyl-N-(4-(methoxymethyl)phenyl)pyrrolo[2,1-f][1,2,4]triazine-5-carboxamide]
2 | 97.3 | COCc1ccc(NC(=O)c2c(C#CC3CCN(C(=O)CCCCN4CCN(c5ccc6c(c5)C(=O)N(C5CCC(=O)NC5=O)C6)CC4)CC3)c(C(C)C)n3ncnc(N)c23)cc1 (stereo not shown) [Example 6, 4-amino-6-((1-(5-(4-(2-(2,6-dioxopiperidin-3-yl)-3-oxoisoindolin-5-yl)piperazin-1-yl)pentanoyl)piperidin-4-yl)ethynyl)-7-isopropyl-N-(4-(methoxymethyl)phenyl)pyrrolo[2,1-f][1,2,4]triazine-5-carboxamide]
3 | 90.1 | COCc1ccc(NC(=O)c2c(C#CC3CCN(C(=O)CCCCN4CCC(c5ccc6c(c5)C(=O)N(C5CCC(=O)NC5=O)C6)CC4)CC3)c(C(C)C)n3ncnc(N)c23)cc1 (stereo not shown) [Example 7, 4-amino-6-((1-(5-(4-(2-(2,6-dioxopiperidin-3-yl)-3-oxoisoindolin-5-yl)piperidin-1-yl)pentanoyl)piperidin-4-yl)ethynyl)-7-isopropyl-N-(4-(methoxymethyl)phenyl)pyrrolo[2,1-f][1,2,4]triazine-5-carboxamide]
4 | 86.3 | COCc1ccc(NC(=O)c2c(C#CC3CCN(C(=O)CCCCN4CCC(c5ccc6c(c5)CN(C5CCC(=O)NC5=O)C6=O)CC4)CC3)c(C(C)C)n3ncnc(N)c23)cc1 (stereo not shown) [Example 8, 4-amino-6-((1-(5-(4-(2-(2,6-dioxopiperidin-3-yl)-1-oxoisoindolin-5-yl)piperidin-1-yl)pentanoyl)piperidin-4-yl)ethynyl)-7-isopropyl-N-(4-(methoxymethyl)phenyl)pyrrolo[2,1-f][1,2,4]triazine-5-carboxamide]
5 | 79.1 | COCc1ccc(NC(=O)c2c(C#CC3CCN(C(=O)CN4CCC5(CC4)CCN(c4ccc6c(c4)CN(C4CCC(=O)NC4=O)C6=O)CC5)CC3)c(C(C)C)n3ncnc(N)c23)cc1 (stereo not shown) [Example 9, 4-amino-6-((1-(2-(9-(2-(2,6-dioxopiperidin-3-yl)-1-oxoisoindolin-5-yl)-3,9-diazaspiro[5.5]undecan-3-yl)acetyl)piperidin-4-yl)ethynyl)-7-isopropyl-N-(4-(methoxymethyl)phenyl)pyrrolo[2,1-f][1,2,4]triazine-5-carboxamide]
6 | 78.9 | COCc1ccc(NC(=O)c2c(C#CC3CCN(C(=O)CCN4CCC5(CC4)CCN(c4ccc6c(c4)CN(C4CCC(=O)NC4=O)C6=O)CC5)CC3)c(C(C)C)n3ncnc(N)c23)cc1 (stereo not shown) [Example 10, 4-amino-6-((1-(3-(9-(2-(2,6-dioxopiperidin-3-yl)-1-oxoisoindolin-5-yl)-3,9-diazaspiro[5.5]undecan-3-yl)propanoyl)piperidin-4-yl)ethynyl)-7-isopropyl-N-(4-(methoxymethyl)phenyl)pyrrolo[2,1-f][1,2,4]triazine-5-carboxamide]

The next lines start with the compound.

Row | Structure (SMILES) | Dmax [%]
7 | COCc1ccc(NC(=O)c2c(C#CC3CCN(C(=O)CCCCCCN4CCN(c5ccc6c(c5)CN(C5CCC(=O)NC5=O)C6=O)CC4)CC3)c(C(C)C)n3ncnc(N)c23)cc1 (stereo not shown) [Example 1] | 84.5
8 | COCc1ccc(NC(=O)c2c(C#CC3CCN(C(=O)CCCCCCN4CCC(c5ccc6c(c5)CN(C5CCC(=O)NC5=O)C6=O)CC4)CC3)c(C(C)C)n3ncnc(N)c23)cc1 (stereo not shown) [Example 2, 4-amino-6-((1-(7-(4-(2-(2,6-dioxopiperidin-3-yl)-1-oxoisoindolin-5-yl)piperidin-1-yl)heptanoyl)piperidin-4-yl)ethynyl)-7-isopropyl-N-(4-(methoxymethyl)phenyl)pyrrolo[2,1-f][1,2,4]triazine-5-carboxamide] | 87.4
9 | COCc1ccc(NC(=O)c2c(C#CC3CCN(C(=O)CCCCCCN4CCN(c5ccc6c(c5)C(=O)N(C5CCC(=O)NC5=O)C6)CC4)CC3)c(C(C)C)n3ncnc(N)c23)cc1 (stereo not shown) [Example 3, 4-amino-6-((1-(7-(4-(2-(2,6-dioxopiperidin-3-yl)-3-oxoisoindolin-5-yl)piperazin-1-yl)heptanoyl)piperidin-4-yl)ethynyl)-7-isopropyl-N-(4-(methoxymethyl)phenyl)pyrrolo[2,1-f][1,2,4]triazine-5-carboxamide] | 91.8
10 | COCc1ccc(NC(=O)c2c(C#CC3CCN(C(=O)CCCCCCN4CCC(c5ccc6c(c5)C(=O)N(C5CCC(=O)NC5=O)C6)CC4)CC3)c(C(C)C)n3ncnc(N)c23)cc1 (stereo not shown) [Example 4, 4-amino-6-((1-(7-(4-(2-(2,6-dioxopiperidin-3-yl)-3-oxoisoindolin-5-yl)piperidin-1-yl)heptanoyl)piperidin-4-yl)ethynyl)-7-isopropyl-N-(4-(methoxymethyl)phenyl)pyrrolo[2,1-f][1,2,4]triazine-5-carboxamide] | 97.6
